# From patent US20250292907A1, “SYSTEMS AND METHODS FOR PERFORMING GAIT AND SPEECH ASSESSMENT ASSOCIATED WITH A DISEASE STATE” (Regeneron Pharmaceuticals, Inc., priority 2024, published 2025)
# What was measured:
# [1] = test system: subjects with Parkinson's Disease (PD); assay: Speech assessment with digital mobile speech-based platform in OFF vs ON medication state; type: in vivo, human; settings: before vs after levodopa treatment, FIG. 103
# Excerpt: Additionally, subjects were also tasked with performing voice and speech assessments using the digital mobile speech-based platform. These speech and language tasks were designed to evaluate different aspects of verbal ability and cognitive function in participants. In an aspect, these tasks were organized to be conducted in a quiet environment to ensure accurate measurement of speech parameters. In a picture description task, participants are shown a static image depicting an event and asked to describe it in their own words. This task serves as a proxy for spontaneous discourse, providing insights into natural language use. […] In a paragraph reading task, participants were required to read one of three standard paragraphs designed to include all English language phonemes and an equal number of details and information units. This task evaluates reading fluency and pronunciation. […] During this task, gait parameters were measured simultaneously using the wearable insoles test device and the production device. […] This involved repeating the same set of voice-related activities performed in the OFF state, including paragraph reading, picture description, object naming, rapid syllable repetition, and sustained phonation. Conducting these tasks in a quiet environment ensured that the speech parameters were accurately measured without external distractions. […]
# [2] = test system: subjects with Parkinson's Disease (PD); assay: Levodopa challenge test: MDS-UPDRS Part III motor examination in OFF state vs ON state; type: in vivo, human; settings: ON minus OFF, mean (SD)
# Method: To participate in the study, participants were required to meet several inclusion criteria. First, they needed a clinical diagnosis of PD confirmed by a treating movement disorders neurologist. Participants had to be between the ages of 40 and 70. […] Participants had to be willing to undergo a levodopa challenge test, which involves coming to an assessment site for evaluation in the morning after not taking levodopa since the night before (e.g., at least 12 hours). They would then take levodopa at the site, wait for it to take effect (achieving the “ON” state), and repeat the motor evaluation. Additionally, participants needed to be ambulatory in the “OFF” state, meaning they could walk safely without a walking aid on a flat surface at the start of the levodopa challenge test. […]
# At step 305, system 100 may receive data from subjects that were assessed in an OFF-state. […]
# In some aspects, the site investigator, who is a movement disorders specialist, was tasked with performing the MDS-UPDRS Part III motor examination. […] Specific tasks, including toe tapping and leg agility, were performed using the production device while wearing the wearable insole tests device to enable a quantitative analysis of these movements.
# At step 310, system 100 may receive data from the subjects that were assessed in the ON-state. […]
structure (smiles),measurement,setting,value
N[C@@H](Cc1ccc(O)c(O)c1)C(=O)O [levodopa],change in average word duration between medication states,[1],prevalent trend of decreasing word duration
same,mean difference in the MDS-UPDRS III between the ON and OFF state,[2]; all subjects,-19.1 (SD=10)
same,mean difference in the LE subscore between the ON and OFF state,[2]; lower extremity subscore of MDS-UPDRS III,−5.7 (SD=4)
